{"source": "patent US20260191192A1", "about": "“ANTIMICROBIAL COMPOSITIONS COMPRISING PELARGONIC ACID” (LANXESS Corporation, priority 2023, published 2026)", "key": {"[1]": {"system": "bacteria (Table 7 pool) and fungi", "experiment": "Challenge test, overall result (simplified bacteria pool and fungi)", "format": "cell-based", "method": "(§1) The preservative activity in representative rinse-off and leave-on formulations was evaluated using a modification of the Personal Care Products Council (PCPC—formerly the Cosmetic, Toiletry and Fragrance Association) protocol (Machtiger, et al. 2001. Determination of the Efficacy of Preservation of Non-Eye Area Water Miscible Cosmetic and Toiletry Formulations: Collaborative Study. J of AOAC International. 84:1, 101-109).\n(§2) This evaluation was conducted using a four week, two or three-cycle (i.e., two-cycle for personal care and three-cycle for home care applications) microbial preservative efficacy test (i.e., challenge test) at 25° C. to determine the preservative efficacy of each treatment. Phenoxyethanol, benzyl alcohol and pelargonic acid were tested alone and in various combinations. The pelargonic acid used in the testing was purchased from Sigma-Aldrich. Combinations of phenoxyethanol or benzyl alcohol with benchmark multifunctional booster compounds were also tested for comparison. The preservative and booster ingredients were dosed and mixed thoroughly at room temperature into various formulations, specifically different personal care formulations including a lotion (leave-on, Table 1), a micellar water (rinse-off, Table 2), and a body wash formulation (rinse-off, Table 3) and different home care formulations including a manual dishwashing formulation (Table 4) and a liquid laundry detergent formulation (Table 5). […] Carbomers are a commonly used synthetic rheological modifier in personal care products. The formulation below was made by heating the aqueous (A) and oil (B) phases separately to 75-80° C. The oil phase was then poured into the aqueous phase and mixed by a homogenizer at approximately 45° C. The formed oil-in-water emulsion was cooled to room temperature. Triethanolamine and/or diluted sodium hydroxide was used to adjust the final pH to 6.3 or 6.5 (as indicated in the examples below).\n(§3) After dosing, the samples were divided into two separate five gram aliquots. One aliquot was inoculated with 50 μl of a diluted bacterial pool, and the second aliquot was inoculated with 50 μl of a diluted fungal pool as described below. Unpreserved product samples were included as a growth control.\n(§4) For personal care products, a mixed bacterial inoculum was prepared using 24-hour cultures of the test bacteria (Table 6) grown in trypticase soy broth (TSB). For home care products, a mixed bacterial inoculum was prepared using 24-hour cultures of the test bacteria either from Table 6 (full pool) or Table 7 (simplified pool) grown in trypticase soy broth (TSB). Details are disclosed in the home care examples below. Equal volumes of the bacterial test strains were combined and diluted one to ten in phosphate buffer to obtain an inoculum of approximately 5×10^7 to 5×10^8 colony forming units per ml (cfu/ml). The test samples were inoculated with 1% of the mixed bacterial inoculum. For both personal care and home care products, a mixed fungal inoculum was prepared using cell suspensions of the yeast Candida albicans ATCC #10231 and the mold Aspergillus brasiliensis ATCC #16404 in phosphate buffer. Equal volumes of the fungal test strains were combined and diluted one to ten with phosphate buffer to obtain an inoculum of approximately 5×10^6 to 5×10^7 cfu/ml. The test samples were inoculated with 1% of the mixed fungal inoculum.\n(§5) For personal care products, the samples were subjected to two microbial challenges at time zero and inoculated a second time after seven days. For home care products, the samples were subjected to three microbial challenges at time zero and inoculated a second and third time after seven and fourteen days, respectively. The number of microorganisms added to each sample was determined by a standard Most Probable Number (MPN) determination in Trypticase Soy Broth (TSB) for bacteria and Potato Dextrose Broth (PDB) for fungi. Samples were incubated at 25° C. for the test duration of four weeks."}, "[2]": {"system": "mixed bacterial inoculum (Table 6)", "experiment": "Challenge test (preservative efficacy), mixed bacterial inoculum, full pool (Table 6)", "format": "cell-based", "method": "as §1, §2, §3, §4, §5"}, "[3]": {"experiment": "ZenBio Cupric Ion Chelating (CIC) Assay", "format": "physicochemical", "conditions": "calculated from a EDTA calibration curve, Pelargonic Acid at 775 μM", "method": "The chelation property of the pelargonic acid was measured by using the ZenBio Cupric Ion Chelating (CIC) Assay (Cat #AOX-16). The assay measured the capacity of the pelargonic acid to chelate free cupric ions in solution, thereby inhibiting Cu(II) binding to pyrocatechol violet (PV) for generating a highly colored complex. The absorbance of the Cupric-PV complex was measured at a wavelength of 632 nm. The cupric ion chelating activity was determined as the percent of total PV over the Cu(II) binding. Ethylenediaminetetraacetic acid (EDTA), a well-known chelating agent, was used as a positive control. A series of EDTA with 7 different concentrations from 0 to 1000 μM were prepared and their corresponding absorbance measured and used as the calibration curve (Cupric ion chelating (%) vs. EDTA concentration). Percent cupric ion chelating was determined following the following calculations and Equation 1. The background absorbance value by averaging the absorbance values of the three background wells (no CuSO4 or sample). The average background absorbance was then subtracted from all the sample absorbance values. The maximal absorbance value (Absmax) was determined by averaging the absorbance values of the three wells containing CuSO4, PV and assay buffer. Abstest in Equation 1 is the absorbance of the test sample.\nThe calibration curve (Cupric ion chelating (%) vs. EDTA concentration) was fit by using a polynomial curve after log 10 transforming the concentrations (R2>0.98)."}, "[4]": {"system": "mixed fungal inoculum: Candida albicans ATCC #10231 and Aspergillus brasiliensis ATCC #16404", "experiment": "Challenge test (preservative efficacy), mixed fungal inoculum", "format": "cell-based", "method": "as §1, §2, §3, §4, §5"}, "[5]": {"system": "bacteria (Table 6 pool) and fungi", "experiment": "Challenge test, overall result (full bacteria pool and fungi)", "format": "cell-based", "method": "as §1, §2, §3, §4, §5"}, "[6]": {"system": "mixed bacterial inoculum for home care (Table 7)", "experiment": "Challenge test (preservative efficacy), mixed bacterial inoculum, simplified pool (Table 7)", "format": "cell-based, Pseudomonas aeruginosa, Staphylococcus aureus", "method": "as §1, §2, §3, §4, §5"}, "[7]": {"conditions": "liquid laundry detergent, pH 7.5, Example 1G, dosed 0.5 wt %"}, "[8]": {"conditions": "liquid laundry detergent, pH 7.5, Example 1G, dosed 1.0 wt %"}, "[9]": {"conditions": "manual dishwashing formulation, pH 5.5, Example 1F, dosed 0.5 wt %"}, "[10]": {"conditions": "manual dishwashing formulation, pH 5.5, Example 1F, dosed 1.0 wt %"}, "[11]": {"conditions": "lotion with carbomer, pH 6.3, Example 1A, dosed 0.4 wt %"}, "[12]": {"conditions": "lotion with carbomer, pH 6.5, Example 1I, dosed 0.4 wt %"}, "[13]": {"conditions": "lotion with carbomer, pH 6.5, Example 1I, total dosing 0.8 wt %"}, "[14]": {"conditions": "liquid laundry detergent, pH 7.5, Example 1H, dosed 0.5 wt %"}, "[15]": {"conditions": "liquid laundry detergent, pH 7.5, Example 1H, dosed 1.0 wt %"}, "[16]": {"conditions": "micellar water, pH 6.0, Example 1B, dosed 0.3 wt %"}, "[17]": {"conditions": "micellar water, pH 6.0, Example 1C, dosed 0.3 wt %"}}, "data": [{"smiles": "OCCOc1ccccc1", "note": "[Phenoxyethanol (POE), 2-phenoxyethan-1-ol]", "values": [{"measurement": "Overall Result", "setting": "[1]; [7]", "value": "Fail"}, {"measurement": "Overall Result", "setting": "[1]; [8]", "value": "Fail"}, {"measurement": "Overall Result", "setting": "[1]; [9]", "value": "Fail"}, {"measurement": "Overall Result", "setting": "[1]; [10]", "value": "Fail"}, {"measurement": "Bacteria growth rating Result", "setting": "[2]; liquid laundry detergent, pH 7.5, full bacteria pool, Example 1H, dosed 0.5 wt %", "value": "Fail (growth rating score caused by bacteria of 2 or more at days 21-28 of the testing period)"}, {"measurement": "Bacteria growth rating Result", "setting": "[2]; liquid laundry detergent, pH 7.5, full bacteria pool, Example 1H, dosed 1.0 wt %", "value": "Pass (growth rating score caused by bacteria of 1 or less at days 21-28 of the testing period)"}, {"measurement": "Bacteria growth rating Result", "setting": "[2]; [11]", "value": "Fail (growth rating score caused by bacteria of 2 or more at days 21-28 of the testing period)"}, {"measurement": "Bacteria growth rating Result", "setting": "[2]; lotion with carbomer, pH 6.3, Example 1D, dosed 0.4 wt %", "value": "Fail (growth rating score caused by bacteria of 2 or more at days 21-28 of the testing period)"}, {"measurement": "Bacteria growth rating Result", "setting": "[2]; lotion with carbomer, pH 6.3, Example 1D, dosed 0.8 wt %", "value": "Pass (growth rating score caused by bacteria of 1 or less at days 21-28 of the testing period)"}, {"measurement": "Bacteria growth rating Result", "setting": "[2]; [12]", "value": "Fail (growth rating score caused by bacteria of 2 or more at days 21-28 of the testing period)"}, {"measurement": "Bacteria growth rating Result", "setting": "[2]; [13]", "value": "Pass (growth rating score caused by bacteria of 1 or less at days 21-28 of the testing period)"}, {"measurement": "Bacteria growth rating Result", "setting": "[2]; micellar water, pH 6.0, bacteria inoculation ~10^7 cfu/ml, Example 1B, dosed 0.3 wt %", "value": "Pass (growth rating score caused by bacteria of 1 or less at days 21-28 of the testing period)"}, {"measurement": "Bacteria growth rating Result", "setting": "[2]; micellar water, pH 6.0, bacteria inoculation ~10^8 cfu/ml, Example 1C, dosed 0.3 wt %", "value": "Fail (growth rating score caused by bacteria of 2 or more at days 21-28 of the testing period)"}, {"measurement": "Calculated EDTA equivalent", "setting": "[3]; listed as Phenoxyethanol", "value": "~0", "unit": "µM"}, {"measurement": "Calculated EDTA equivalent", "setting": "[3]; listed as phenoxyethanol", "value": "~ 0 μM"}, {"measurement": "Fungi growth rating Result", "setting": "[4]; [7]", "value": "Fail (growth rating score caused by fungi of more than 2 at days 21-28 of the testing period)"}, {"measurement": "Fungi growth rating Result", "setting": "[4]; [8]", "value": "Fail (growth rating score caused by fungi of more than 2 at days 21-28 of the testing period)"}, {"measurement": "Fungi growth rating Result", "setting": "[4]; [14]", "value": "Fail (growth rating score caused by fungi of more than 2 at days 21-28 of the testing period)"}, {"measurement": "Fungi growth rating Result", "setting": "[4]; [15]", "value": "Fail (growth rating score caused by fungi of more than 2 at days 21-28 of the testing period)"}, {"measurement": "Fungi growth rating Result", "setting": "[4]; [11]", "value": "Fail (growth rating score caused by fungi of more than 2 at days 21-28 of the testing period)"}, {"measurement": "Fungi growth rating Result", "setting": "[4]; [12]", "value": "Fail (growth rating score caused by fungi of more than 2 at days 21-28 of the testing period)"}, {"measurement": "Fungi growth rating Result", "setting": "[4]; [13]", "value": "Pass (growth rating score caused by fungi of 2 or less at days 21-28 of the testing period)"}, {"measurement": "Fungi growth rating Result", "setting": "[4]; lotion, pH 6.5, Example 4, dosed 0.8 wt %", "value": "Pass (growth rating score caused by fungi of 2 or less at days 21-28 of the testing period)"}, {"measurement": "Fungi growth rating Result", "setting": "[4]; manual dishwash formulation, pH 6.5, Example 4, dosed 0.8 wt %", "value": "Fail (growth rating score caused by fungi of more than 2 at days 21-28 of the testing period)"}, {"measurement": "Fungi growth rating Result", "setting": "[4]; [9]", "value": "Fail (growth rating score caused by fungi of more than 2 at days 21-28 of the testing period)"}, {"measurement": "Fungi growth rating Result", "setting": "[4]; [10]", "value": "Fail (growth rating score caused by fungi of more than 2 at days 21-28 of the testing period)"}, {"measurement": "Fungi growth rating Result", "setting": "[4]; [16]", "value": "Fail (growth rating score caused by fungi of more than 2 at days 21-28 of the testing period)"}, {"measurement": "Fungi growth rating Result", "setting": "[4]; [17]", "value": "Fail (growth rating score caused by fungi of more than 2 at days 21-28 of the testing period)"}, {"measurement": "Overall Result", "setting": "[5]; [14]", "value": "Fail"}, {"measurement": "Overall Result", "setting": "[5]; [15]", "value": "Fail"}, {"measurement": "Overall Result", "setting": "[5]; [11]", "value": "Fail"}, {"measurement": "Overall Result", "setting": "[5]; [12]", "value": "Fail"}, {"measurement": "Overall Result", "setting": "[5]; [13]", "value": "Pass"}, {"measurement": "Overall Result", "setting": "[5]; [16]", "value": "Fail"}, {"measurement": "Overall Result", "setting": "[5]; [17]", "value": "Fail"}, {"measurement": "Bacteria growth rating Result", "setting": "[6]; liquid laundry detergent, pH 7.5, simplified bacteria pool, Example 1G, dosed 0.5 wt %", "value": "Pass (growth rating score caused by bacteria of 1 or less at days 21-28 of the testing period)"}, {"measurement": "Bacteria growth rating Result", "setting": "[6]; liquid laundry detergent, pH 7.5, simplified bacteria pool, Example 1G, dosed 1.0 wt %", "value": "Pass (growth rating score caused by bacteria of 1 or less at days 21-28 of the testing period)"}, {"measurement": "Bacteria growth rating Result", "setting": "[6]; manual dishwashing formulation, pH 5.5, simplified bacteria pool, Example 1F, dosed 0.5 wt %", "value": "Fail (growth rating score caused by bacteria of 2 or more at days 21-28 of the testing period)"}, {"measurement": "Bacteria growth rating Result", "setting": "[6]; manual dishwashing formulation, pH 5.5, simplified bacteria pool, Example 1F, dosed 1.0 wt %", "value": "Fail (growth rating score caused by bacteria of 2 or more at days 21-28 of the testing period)"}]}]}
